{"source": "paper PMC7381740", "about": "(Theranostics, 2020)", "target": "T1, S1R (Homo sapiens, UniProt Q99720)", "T1 construct": "Post-mortem brain tissues of 23 cases (8 men and 15 women) were obtained from the Manchester Brain Bank; from tissue; host or cells: post-mortem human frontal and temporal cortex (Manchester Brain Bank)", "T1 sequence (Q99720 whole entry)": "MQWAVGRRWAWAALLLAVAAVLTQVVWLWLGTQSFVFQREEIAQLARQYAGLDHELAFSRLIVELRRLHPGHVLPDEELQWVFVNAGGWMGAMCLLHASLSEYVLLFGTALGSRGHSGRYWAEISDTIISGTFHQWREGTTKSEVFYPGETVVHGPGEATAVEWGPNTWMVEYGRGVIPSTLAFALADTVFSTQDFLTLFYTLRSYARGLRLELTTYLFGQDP", "experiment": "Autoradiography in post-mortem human cortex (controls, subclinical AD, AD)", "assay_type": "binding", "description": "Post-mortem brain tissues of 23 cases (8 men and 15 women) were obtained from the Manchester Brain Bank through appropriate consenting procedures for collection and use of the human brain tissues. Pathological diagnoses were made by an experienced neuropathologist (DM) as previously described, [48] and were in accordance with recent National Institute on Ageing - Alzheimer's Association guidelines for the neuropathological assessment of AD [49]. By such classification, only cases with Braak stages 5 and 6 were classed as definite AD. Cases with Braak Stages >2 & ≤4 were not diagnosed as definite AD, but these could be considered as cases of possible (incipient) AD, thereby representing cases with early changes of AD. Amyloid plaque load per se was not employed for classification of AD, although it is acknowledged that neuritic plaque scores do form the basis of CERAD classification. Clearly, in terms of amyloid plaques alone, there was overlap in amyloid load between cases at Braak stage >2 & ≤4 and those at Braak stages 5 and 6. Subjects were therefore split in three groups based on their Braak stages: controls (Braak ≤2, 8 subjects), subclinical AD (Braak >2 & ≤4, 8 subjects) and AD (Braak >4, 7 subjects). Details of each case are described in Table 1. […] These were obtained from aged patients with no history of neurological disease and no pathological evidence of AD or other degenerative brain disease. […] The average post-mortem delay was also similar for all groups (mean ± SD [min.-max.]: 34.9 ± 11.3 [12]-[46]; 35.8 ± 9.9 [25]-[48] and 41.5 ± 14.2 [24]-[64] hours for controls, subclinical AD and AD groups, respectively). Subsequently to the autoradiography experiments, measurements from frontal cortex of case #3 were not included as the sections had been damaged during the experiments (Table 1).\nSections of frontal (Brodmann areas 8/9) and temporal cortex (Brodmann areas 21/22) were cut from frozen human tissue blocks. Human and rodents sections were mounted on to glass slides (SuperFrost Plus Gold and SuperFrost Plus slides, Thermo Fisher Scientific Inc., MA, USA for human and animal tissues, respectively). For all steps described below, Tris buffer (Trizma pre-set crystals (Sigma, UK), 50 mM, with 120 mM NaCl, with pH adjusted to 7.4 at 4 °C or room temperature) was used. Slides were allowed to defrost then pre-incubated in Tris Buffer at 4 °C for 5min. […] Adjacent sections were incubated with the same solution containing an excess of unlabelled IAM6067 (2 µM) to assess non-specific binding. Next the slides were washed 2 × 2 min in Tris buffer at 4 °C, followed by a quick rinsing in distilled water at 4 °C. Slides were then dried promptly before exposition on Phosphor-Imager plates overnight. Autoradiographs were analysed using AIDA software (Raytest GmbH, Germany). […] Specific binding (total binding minus non-specific binding) in each ROI is expressed as intensity of the photostimulated luminescence (PSL) per pixel.\nSpecific binding for human autoradiography across the three groups in both frontal and temporal cortex and for grey and white matter was analysed by mixed-model fitting (brain structures as repeated factor). As this analysis only returned an effect for the brain structures factor and not for the Braak stage, a Sidak's post-hoc test comparing brain regions only was performed.", "data": [{"smiles": "FCCOc1ccc(CN2CCN(Cc3cc4ccccc4o3)CC2)cc1", "note": "[^18F-IAM6067, N-(2-Benzofuranylmethyl)-N'-[4-(2-fluoroethoxy)benzyl]piperazine]", "values": [{"measurement": "specific binding", "setting": "human frontal grey matter, AD (Braak >4)", "result": "3.27 ± 0.90", "unit": "PSL/pixel"}, {"measurement": "specific binding", "setting": "human frontal grey matter, controls (Braak ≤2)", "result": "2.37 ± 1.09", "unit": "PSL/pixel"}, {"measurement": "specific binding", "setting": "human frontal grey matter, subclinical AD (Braak >2 & ≤4)", "result": "3.11 ± 0.84", "unit": "PSL/pixel"}, {"measurement": "specific binding", "setting": "human temporal grey matter, AD (Braak >4)", "result": "2.91 ± 1.20", "unit": "PSL/pixel"}, {"measurement": "specific binding", "setting": "human temporal grey matter, controls (Braak ≤2)", "result": "2.56 ± 1.24", "unit": "PSL/pixel"}, {"measurement": "specific binding", "setting": "human temporal grey matter, subclinical AD (Braak >2 & ≤4)", "result": "2.98 ± 1.15", "unit": "PSL/pixel"}]}]}
